Laboratory results as given in publication PMC12024213, “Mechanism Insight of Cell Death Signaling by Thymol Derivatives on Trypanosomatidae Protozoan Parasites” (Antibiotics, 2025).
Where two headings read alike, the source gives them in different places.

Experiments:
T. cruzi epimastigotes [1] = experiment: Hoechst/PI double stain, chromatin condensation, T. cruzi; type: cell-based, Trypanosoma cruzi; settings: IC90, 24 h
Description: To identify the type of cell death occurring in both kinetoplastids after treatment, Hoechst 33342 and propidium iodide (PI) dyes were used. Even though both dyes are DNA affine, the Hoechst 33342 stain is cell permeable and known to distinguish apoptotic cells from healthy or necrotic cells, whereas the PI is cell impermeable and stain dead cells as late apoptotic or necrosis. After treatment, three types of staining could be observed: blue fluorescence for cells undergoing apoptosis, violet color as the merge of blue and red fluorescence for late apoptotic cells, and red color for dead cells.

intramacrophage T. cruzi = experiment: Intramacrophagic stage assay, T. cruzi in J774.A1 macrophages; type: cell-based, Trypanosoma cruzi; settings: Trypanosoma cruzi; intramacrophage stage in J774.A1, 24 h treatment; mean ± SD; read-out: T. cruzi Intracellular IC50
Protocol: (§1) Briefly, in a 96-well plate, macrophages from the J774.A1 cell line were seeded at a final concentration of 2 × 10^5 cells/mL in Dulbecco’s Modified Eagle Medium (DMEM) and maintained at 37 °C in a 5% CO2 atmosphere until fully adhesion. Cells were infected either with L. amazonensis promastigotes (at a ratio of 1:10) or epimastigotes of T. cruzi (at a ratio of 1:7) (macrophage: parasite) and incubated at 37 °C in 5% CO2 for 24 h for Leishmania and 48 h for Trypanosoma. After infection, plates were washed using DMEM to eliminate external parasites. Subsequently, infected macrophages were treated with different concentrations of active compounds for 24 h. Later, macrophages were lysed using 30 μL of medium, Schneider for Leishmania, and in liver infusion tryptose for Trypanosoma, containing 0.05% of sodium dodecyl sulfate (SDS) for 30 s under agitation. Afterwards, 170 μL of the appropriated medium was derivatives added to each well to give a final volume of 200 μL. Subsequently, 10% of alamarBlue® was added into each well and the plate was incubated at 26 °C for 72 h.
(§2) Cytotoxicity effect of the tested derivatives was conducted using macrophages of the murine cell line J774.A1 (American Type Culture Collection #TIB-67, city, country), as previously described. The cells were maintained in DMEM at 37 °C in a 5% CO2 humidified incubator. All the plates containing alamarBlue® were analyzed using a plate reader EnSpire Multimode Plate Reader® at excitation and emission wavelengths of 570 and 585 nm, respectively (PerkinElmer, ThermoFisher Scientific, Madrid, Spain). The IC50 (concentrations able to inhibit 50% of parasites), IC90 (concentrations able to inhibit 90% of parasites), and CC50 (concentration able to inhibit 50% of murine macrophages) values were determined for each compound by nonlinear regression using GraphPad software.

[2] = as above; type: cell-based, Trypanosoma cruzi; settings: mouse; CC50 J774.A1 / IC50 intracellular T. cruzi; read-out: Selectivity Trypanosoma SI (CC50/IC50)
Protocol: as §1, §2

T. cruzi epimastigotes [3] = experiment: Monodansylcadaverine staining of autophagic vacuoles, T. cruzi; type: cell-based, Trypanosoma cruzi; settings: 24 h treatment, confocal microscopy
Protocol: (§3) The present method consists of staining the autophagic vacuoles with the treated cells by ion trapping and specific interactions with the vesicle membrane lipids. The experiment was carried out by following the manufacturer’s recommendations, and as described previously. After 24 h of incubation, cells were stained with MDC reagent at 5 mM and incubated at 26 °C for 30 min in µ-Slide 8 (Ibidi, Gräfelfing, Germany). Later, the cells were washed with PBS and observed with Leica DMI 4000 B.

[4] = system: L. amazonensis promastigotes; experiment: Monodansylcadaverine staining of autophagic vacuoles, L. amazonensis; type: cell-based, Leishmania amazonensis; settings: 24 h treatment, confocal microscopy
Protocol: as §3

T. cruzi = experiment: ATP level, CellTiter-Glo, T. cruzi; type: cell-based, Trypanosoma cruzi; settings: IC90, 24 h, luminescence
Protocol: The adenosine triphosphate (ATP) level was measured using the CellTiter-Glo Luminescent Cell Viability Assay (Promega, Madrid, Spain). The mitochondria in which most cellular oxidations occur is considered the main source of cell’s ATP; any damage and/or malfunction of this organelle generate the depletion of ATP levels.

[5] = Cytotoxicity assay on murine macrophages (alamarBlue); type: cell-based; settings: mouse, J774.A1 macrophage cell line, mean ± SD
Protocol: as §2

[6] = alamarBlue assay on L. amazonensis promastigotes; type: cell-based, Leishmania amazonensis; settings: mouse; CC50 J774.A1 / IC50 L. amazonensis promastigotes; read-out: Selectivity Leishmania SI (CC50/IC50)
Protocol: (§4) The assay was conducted using the alamarBlue® method as previously described. Briefly, promastigotes of L. amazonensis were grown at 26 °C in Schneider’s medium (US Biological, Life sciences) and supplemented with 10% heat-inactivated fetal bovine serum and 0.04% of sodium bicarbonate. In a 96-well microtiter plates (Corning™, Corning, NY, USA) a serial dilutions of thymol derivatives were first prepared, and later, 10^6 parasites/mL were added into each well. Subsequently, 10% of alamarBlue® was added to the entire plate. The plates were incubated for 72 h at 26 °C.
as §2

[7] = system: L. amazonensis promastigotes; experiment: alamarBlue assay on L. amazonensis promastigotes; type: cell-based, Leishmania amazonensis; settings: Leishmania amazonensis
Protocol: as §4, §2

[8] = Intramacrophagic stage assay, L. amazonensis in J774.A1 macrophages; type: cell-based, Leishmania amazonensis; settings: mouse; CC50 J774.A1 / IC50 intracellular L. amazonensis; read-out: Selectivity Leishmania SI (CC50/IC50)
Protocol: as §1, with “fully adhesion. […] After infection,” for “fully adhesion. Cells were infected either with L. amazonensis promastigotes (at a ratio of 1:10) or epimastigotes of T. cruzi (at a ratio of 1:7) (macrophage: parasite) and incubated at 37 °C in 5% CO2 for 24 h for Leishmania and 48 h for Trypanosoma. After infection,”, “72 h. Cytotoxicity effect of the tested derivatives was conducted using macrophages of the murine cell line J774.A1 (American Type Culture Collection #TIB-67, city, country), as previously described. The cells were maintained in DMEM at 37 °C in a 5% CO2 humidified incubator.” for “72 h.”

[9] = system: intramacrophage L. amazonensis; experiment: as above; type: cell-based, Leishmania amazonensis; settings: Leishmania amazonensis; intramacrophage stage in J774.A1, 24 h treatment; mean ± SD; read-out: L. amazonensis Intracellular IC50
Protocol: as §1, with “fully adhesion. […] After infection,” for “fully adhesion. Cells were infected either with L. amazonensis promastigotes (at a ratio of 1:10) or epimastigotes of T. cruzi (at a ratio of 1:7) (macrophage: parasite) and incubated at 37 °C in 5% CO2 for 24 h for Leishmania and 48 h for Trypanosoma. After infection,”, “72 h. Cytotoxicity effect of the tested derivatives was conducted using macrophages of the murine cell line J774.A1 (American Type Culture Collection #TIB-67, city, country), as previously described. The cells were maintained in DMEM at 37 °C in a 5% CO2 humidified incubator.” for “72 h.”

[10] = 72 h, promastigotes, alamarBlue, 72 h at 26 °C, mean ± SD, triplicates, read-out: L. amazonensis Promastigote IC50

Row | SMILES | chromatin condensation (Hoechst/PI staining) (T. cruzi epimastigotes [1]) | IC50 (intramacrophage T. cruzi) | selectivity ratio [2] | autophagic vacuoles (MDC staining) (T. cruzi epimastigotes [3]) | autophagic vacuoles (MDC staining) [4] | decrease of ATP production compared to negative control (T. cruzi) | CC50 [5] | selectivity ratio [6] | IC50 [7, 10] | selectivity ratio [8] | IC50 [9] | IC50 ([7]; abstract, stage not stated, read-out: IC50 against L. amazonensis (abstract))
1 | Cc1ccc(C(C)C)c(OC(=O)c2ccccn2)c1 [Derivative 10, thymyl picolinate] | increasing the chromatin condensation | 28.8 ± 5.6 µM | 8.8 | Induction of autophagy | Induction of autophagy | 50% | 254.5 ± 1.9 µM | 7.4 | 34.4 ± 2.3 µM | 10.1 | 25.3 ± 0.8 µM | 
2 | COc1ccc(C(=O)Oc2cc(C)ccc2C(C)C)cc1 [Derivative 9, thymyl anysoate] | increasing the chromatin condensation | 9.1 ± 0.5 µM | > 33 | Induction of autophagy | Induction of autophagy | 65% | > 300 µM | > 10.3 | 29.1 ± 3.8 µM | > 19.7 | 15.2 ± 0.8 µM | 22.9 µM
